This note sets out measurements from a melting point compilation (Tetko et al.; mined from patent text by program, amines drawn as free bases though some values may be those of a salt).

The melting point is the temperature, or range, at which the solid turns liquid.

The molecule `Cc1noc2cc3c(cc12)C1(CO3)C(=O)N(Cc2ccc(C(F)(F)F)o2)c2ccccc21` (stereo not given) displayed a melting point of 111 to 112 °C. `Cc1onc(-c2c(F)cccc2Cl)c1-c1csc(N)n1` registered a melting point of 148 to 149 °C.

As to `COc1cc(OC)c(S(C)(=O)=O)cc1C(=O)NCC1CCCN1C1CCCC1` (stereo not given), the melting point was found to be 198 °C.

Consider `CCC(CCNC(=O)CC#N)NC(=O)CC#N` (stereo not given), for which the melting point is 125 °C.

In turn, `CC(C)COc1ccc(S(C)(=O)=O)cc1C(=O)O` gave a melting point of 149 to 153 °C. The same measure for `CC(C)(C)OC(=O)Nc1ccc2c(c1)OCC(=O)N2`: 200 to 203 °C; for `CC(=O)N1CCc2ccc(C(=O)c3cccc(F)c3)cc2C1`: 136 to 139 °C. The value for `COc1cc2c(cc1OC)CC(=O)NC(=O)C2` was 235 °C; that for `CC(C)OC(=O)C1(F)C(=O)NC(=O)NC1O/N=C\c1ccco1` (stereo not given) was 131 to 134 °C; that for `O=C(O)c1ccc(-c2ccc3oc([N+](=O)[O-])c(-c4ccccc4)c3c2)cc1` was 259 to 261 °C.

As to `CN1CCN(C(=O)Nc2ccc3c(c2Cl)C(c2ccccc2F)=NCC(=O)N3C)CC1`, the melting point came to 154 °C.

With `CCN(CC)c1ccc2nc3c4ccccc4c(=Nc4nc5ccc(OC)cc5s4)cc-3oc2c1`, the melting point lay in the range of 197 to 198 °C.

For the molecule `CCOC(=O)[C@@H](O)[C@@H]1OC(=O)c2c(OC)cc(OC)cc21`, the melting point fell in the range of 154 to 156 °C. Molecule `COC(=O)Nc1ccc(Cl)c(F)c1I` displayed a melting point of 137 to 139 °C.

In the case of `CO/N=C(/CNC(=O)c1cnc(O[C@@H](C)C(F)(F)F)c(-c2ccc(Cl)cc2)n1)C1CC1`, the melting point was in the range of 149 to 152 °C. For `CC(C)COc1ccccc1OCCOS(C)(=O)=O`, the melting point lay within 59 to 61 °C.

As for `CCNC(=O)[C@H](C)C[C@H](O)[C@H](CC1CCCCC1)NC(=O)[C@H](Cc1cscn1)NC(=O)OC(C)(C)C`, the melting point lay in the range of 179 to 181 °C. The same measure for `O=[N+]([O-])c1ccc(CO)c(Cl)c1`: 62 to 64 °C; for `CS(=O)(=O)Oc1cc(NN)c(F)cc1Cl`: 75 to 77 °C.

`OC(c1ccc2c(c1)COCO2)c1cn(C(c2ccccc2)(c2ccccc2)c2ccccc2)cn1` (stereo not given) gave a melting point of 165 to 167 °C. As for `N#Cc1ccc(Oc2ccccc2)cc1C#N`, the melting point was 98 to 100 °C. The molecule `COC(=O)C1CCC2C3CCC4CC5OC5CC4(C)C3C(=O)CC12C` (stereo not given) registered a melting point of 140 to 145 °C. As to `CC(Oc1ncn(-c2cccc(Br)c2)n1)C(=O)N1CCCC1` (stereo not given), the melting point lay within 111 to 113 °C. The same measure for `CON=C(C(=O)OC)c1ccc(O)c([N+](=O)[O-])c1`: 93 to 95 °C; for `COC(=O)c1c(C)oc2ccccc2c1=O`: 116 to 118 °C.

Molecule `CC(=O)CCCSc1cc(C(C)(C)C)c(O)c(C(C)(C)C)c1` came in with a melting point of 65 to 67 °C. The same measure for `COc1ccc(COCc2nc(C(C)C)c(Sc3cc(Cl)cc(Cl)c3)n2CC(F)(F)F)cc1`: 134 to 136 °C; for `Cn1cc(-c2nnn[nH]2)c(=O)c2ccc(F)cc21`: 290 to 292 °C; for `CCN(CC)CCCC1CCCN(C(=O)N2c3ccccc3NC(=O)c3csc(C)c32)C1` (stereo not given): 136 to 138 °C.

`CC(CN1CCCS1(=O)=O)c1ccncc1` (stereo not given) had a melting point of 90 to 92 °C.

With `Cc1cc(OCCc2nc(-c3ccccc3)oc2C)ccc1OC(C)(C)C(=O)O`, the melting point turned out to be 117 °C.

In turn, `NCC1Cc2cc(C(F)(F)F)cc(-c3cccc(F)c3)c2O1` (stereo not given) registered a melting point greater than 250 °C. The value for `CC(C)(Cc1cc2cc(OCc3ccc4ccccc4n3)ccc2n1Cc1ccc(Cl)cc1)C(=O)O` was 193 to 194 °C. The same measure for `COC(=O)C=Cc1ccc(OCC(C)NCC(O)c2cccc(Cl)c2)cc1` (stereo not given): 97 to 103 °C; for `O=C1CNc2ncc(I)cc2N1Cc1ccccc1OC(F)(F)F`: 235 °C; for `COC(=O)c1ccc2oc(CCCCCc3cc4cc(C(=O)OC)ccc4o3)cc2c1`: 83 to 85 °C. The same measure for `CC(C)NC(=S)N1CCc2nc(N)sc2C1`: 179 to 180 °C; for `Cc1nc2nc(SCc3ccccc3)nn2c(O)c1Cl`: 258 to 260 °C; for `ClCCCCOc1cccc(OCCCCCl)c1`: 85 to 86 °C.

`O=C(O)c1cn(Cc2ccc(OCc3csc(-c4ccccc4)n3)cc2)nc1-c1ccccc1`: the melting point is 119 to 120 °C.

`CCCSc1cn(C)cc(-c2cccc(C(F)(F)F)c2)c1=O` had a melting point of 101 to 102 °C. `CCCCCCCCC1CC(Cn2cncn2)(c2ccc(OC)cc2)N(C)O1` (stereo not given) returned a melting point of 89 to 91 °C. Regarding `Clc1nc2cccccc-2n1`, the melting point lay in the range of 162 to 163 °C. The same measure for `CC12CCC(=O)NC1CCc1cc(-c3cnc4ccccc4c3)ccc12` (single isomer, unassigned; (+)): 265 to 266 °C; for `O=C1NCCNc2c1cccc2[N+](=O)[O-]`: 191 to 195 °C.

With `Cc1c([N+](=O)[O-])ccnc1CSc1nc2ccc(C(F)(F)F)cc2[nH]1`, the melting point was 192 to 193 °C. The value for `COc1cc2c(cc1OCc1ccccc1)CCN(Cc1cccc(O)c1)C2` was 78 to 79 °C.

`Ic1ccc(OC2CCCCO2)cc1` (stereo not given) showed a melting point of 66 °C. `O=[N+]([O-])c1ccc(F)cc1CS(=O)(=O)c1cccc2ccccc12` registered a melting point of 155 to 160 °C.

With `COc1ccc2c(c1)CC(=O)NC2c1ccc(Cl)cc1` (stereo not given), the melting point lay in the range of 200 to 201 °C. The value for `CC(C)c1ccc(NC(=O)C(F)(F)F)cc1` was 98 °C; that for `CCC1CC2=CC(=O)CCC2C2CCC3(C)C(O)CCC3C12` (stereo not given) was 142 to 144 °C. For the molecule `CCn1c(=O)[nH]c(=O)c2c(-c3ccc(F)cc3)c(/C=C/C=O)c(C3CC3)nc21`, the melting point was found to be 236 °C. The same measure for `CN1CC(C)(C)Oc2c(C(=O)NC3CN4CCC3CC4)cccc21` (stereo not given): 114 to 116 °C; for `CCCCCCCCCCOc1cc(OCCCCCCCCCC)cc(C(=O)C(=O)N(CC(=O)O)CC(=O)O)c1`: 76 to 78 °C; for `O=C(CCCCC(=O)Oc1cc(O)cc(O)c1)Oc1cc(O)cc(O)c1`: 251 to 255 °C. As for `NS(=O)(=O)c1ccsc1`, the melting point is 187 to 190 °C.

The molecule `O=c1[nH]c2ccccc2n1CCN1CCc2c([nH]c3ccccc23)C1` registered a melting point of 214 to 216 °C. The same measure for `CC(C)(C)c1ccc(C(=O)NC(=N)N)cc1`: 255 to 258 °C.

In the case of `CC[C@@H](c1ccccc1)N(Cc1ccc(C(=O)OC)cc1)S(=O)(=O)c1ccc(C(F)(F)F)cc1`, the melting point lay within 70 to 72 °C.

`CC1(C)CCC(C)(C)C2=C1C=C(CC#Cc1ccc(C(=O)O)cc1)CC2(O)OCc1ccc(C(F)(F)F)cc1` (stereo not given): the melting point worked out at 222 °C. As to `Cc1ccc(S(=O)(=O)NN=CC(Cl)Cl)cc1`, the melting point turned out to be 123 °C. The value for `CCCCCS(=O)(=O)NC(=O)/C=C/c1ccc(OCCOCCOC)cc1Oc1ncc(C(F)(F)F)cc1Cl` was 81 to 83 °C; that for `Oc1ccc2c(c1)COc1c-2cc2ccc(O)cc2c1-c1ccc(F)cc1` was 229 to 232 °C.

Consider `CCCc1nn(-c2ccc(C(F)(F)F)cn2)cc1CCCOc1nn(C)cc1CCC(=O)O`, for which the melting point was 103 to 104 °C. The value for `COc1ccc2ncc3c(c2c1)C(OC(C)=O)CCC3` (stereo not given) was 116 to 117 °C. The value for `O=C(Nc1c(F)cc(F)cc1F)N(Cc1ccc2c(c1)Cc1ccccc1-2)C1CCCCC1` was 162 to 165 °C. `COc1ccccc1-c1ccc(C(=O)N2Cc3cccn3Cc3ccccc32)cc1` came in with a melting point of 250 to 253 °C.

`COc1cccc(-c2nn(Cc3oc4ccccc4c(=O)c3-c3cccc(F)c3)c3ncnc(N)c23)c1` gave a melting point of 175 to 178 °C. The value for `O=C(CNc1cccc(F)c1)Nc1c(Cl)ccc2nc(N3CC[C@@H](O)C3)ccc12` was 218 to 220 °C; that for `NC(=O)c1ncn(C2OC(CO)C(O)C2O)c1C#Cc1ccccc1` (stereo not given) was 168 to 169 °C; that for `COc1ccc(N2CCN(CCN3CCC(c4noc5cc(F)ccc45)CC3)C2=O)cc1` was 154 to 157 °C. The value for `Cc1nn(-c2ccc(C(F)(F)F)cn2)cc1COc1cccc(CC(=O)O)c1` was 142 to 143 °C; that for `COc1ccc(-c2nc(-c3cccnc3)c(C)n2C)c(OC)c1` was 129 to 131 °C.

Molecule `NC(=O)C1CCc2ccccc2O1` (stereo not given) displayed a melting point of 125 to 127 °C. The value for `CCCCCCCCCc1ccc(C(CCCCC(=O)O)SCCC(=O)O)cc1` (stereo not given) was 61 to 62 °C. `COc1ccc(N2CCOCC2)c2sc(-c3nc4ccc(N5CCCC5)nc4[nH]3)nc12` returned a melting point of 264 to 268 °C. The same measure for `Cc1nc2c(N)cccn2c1C`: 148 to 150 °C. The value for `O=C(O)CN(CC(=O)O)CC(c1ccc([N+](=O)[O-])cc1)N(CC(=O)O)CC(=O)O` (stereo not given) was 171 to 174 °C.

In turn, `O=c1ccc(-c2ccc(CCCO)cc2)cn1Cc1ccc(Cl)cc1` yielded a melting point of 165 °C. Regarding `NC(=O)c1sc2nc(N3CCC(NCC(O)c4ccc5ccccc5n4)CC3)cc(C(F)(F)F)c2c1N` (stereo not given), the melting point lay within 198 to 201 °C. The same measure for `COC(=O)CCCCCCNC(=O)C(CO)NS(=O)(=O)c1ccc(Cl)cc1` (racemic): 78 to 81 °C. The same measure for `CCN(c1cc(S(C)(=O)=O)ccc1C(=O)O)S(C)(=O)=O`: 199 to 200 °C; for `O=C(NCCCCCCCNC(=O)c1ccc(OC2CCCCC2)cc1)c1ccc(OC2CCCCC2)cc1`: 144 to 145 °C. The molecule `O=C1NCC=NN1c1cc(Cl)c(Cc2ccc(Cl)cc2)c(Cl)c1` had a melting point of 199 to 200 °C. The value for `CC(C)C(=O)C(O)(Cc1ccc(Cl)cc1Cl)c1cccnc1` (stereo not given) was 144 to 145 °C; that for `CC(C)(C)OC(=O)CCC1CCC(N)CC1` (stereo not given) was 39 to 40 °C. The same measure for `O=C1c2ccccc2C(=O)N1CCSCc1nccc(NC(=S)NCC(F)(F)F)n1`: 178 to 179 °C; for `CCCCCCCCCCCCCCOc1ccccc1C(=O)N(CC)CC`: 31 to 32 °C; for `Cc1cccc(C(=O)O)c1Cl`: 141 to 142 °C.
